Experimental data reported in the NIST ThermoML archive (doi:10.1021/acs.jced.5b00259).

Test: xn = mol fraction of the nth substance listed
Conditions: 100 kPa, Liquid

CCOS(=O)(=O)[O-].CC[NH+]=C(N(C)C)N(C)C [2-ethyl-1,1,3,3-tetramethylguanidinium ethyl sulfate] + CCO
Conditions	mass density [kg/m3]	viscosity [mPa·s]
293.15 K, x1 = 0.0998	910.21	2.824
293.15 K, x1 = 0.2003	984.3	5.826
293.15 K, x1 = 0.3006	1033.78	11.42
293.15 K, x1 = 0.4016	1069.61	22.83
293.15 K, x1 = 0.498	1095.76	40.88
293.15 K, x1 = 0.5996	1117.54	73.39
293.15 K, x1 = 0.6976	1134.51	127.4
293.15 K, x1 = 0.7969	1148.58	213.6
293.15 K, x1 = 0.9008	1160.83	385.6
293.15 K, x1 = 1	1170.76	673.4
298.15 K, x1 = 0.0998	906.2	2.546
298.15 K, x1 = 0.2003	980.34	5.136
298.15 K, x1 = 0.3006	1030	9.821
298.15 K, x1 = 0.4016	1065.96	19.07
298.15 K, x1 = 0.498	1092.12	33.16
298.15 K, x1 = 0.5996	1113.91	57.2
298.15 K, x1 = 0.6976	1130.91	95.44
298.15 K, x1 = 0.7969	1145.02	154
298.15 K, x1 = 0.9008	1157.3	264.4
298.15 K, x1 = 1	1167.24	441.5
303.15 K, x1 = 0.0998	902.18	2.307
303.15 K, x1 = 0.2003	976.55	4.559
303.15 K, x1 = 0.3006	1026.22	8.524
303.15 K, x1 = 0.4016	1062.27	16.15
303.15 K, x1 = 0.498	1088.47	27.11
303.15 K, x1 = 0.5996	1110.31	45.41
303.15 K, x1 = 0.6976	1127.33	73.08
303.15 K, x1 = 0.7969	1141.46	114.2
303.15 K, x1 = 0.9008	1153.79	187.9
303.15 K, x1 = 1	1163.76	302.5
308.15 K, x1 = 0.0998	898.18	2.096
308.15 K, x1 = 0.2003	972.66	4.072
308.15 K, x1 = 0.3006	1022.45	7.459
308.15 K, x1 = 0.4016	1058.6	13.81
308.15 K, x1 = 0.498	1084.84	22.56
308.15 K, x1 = 0.5996	1106.73	36.71
308.15 K, x1 = 0.6976	1123.77	57.39
308.15 K, x1 = 0.7969	1137.92	86.55
308.15 K, x1 = 0.9008	1150.29	134.9
308.15 K, x1 = 1	1160.28	214.6
313.15 K, x1 = 0.0998	894.15	1.91
313.15 K, x1 = 0.2003	968.7	3.656
313.15 K, x1 = 0.3006	1018.66	6.577
313.15 K, x1 = 0.4016	1054.91	11.92
313.15 K, x1 = 0.498	1081.22	19.04
313.15 K, x1 = 0.5996	1103.16	30.14
313.15 K, x1 = 0.6976	1120.23	45.97
313.15 K, x1 = 0.7969	1134.39	67.31
313.15 K, x1 = 0.9008	1146.78	103.7
313.15 K, x1 = 1	1156.8	157.2
318.15 K, x1 = 0.0998	890.12	1.746
318.15 K, x1 = 0.2003	964.81	3.298
318.15 K, x1 = 0.3006	1014.86	5.839
318.15 K, x1 = 0.4016	1051.24	10.38
318.15 K, x1 = 0.498	1077.62	16.26
318.15 K, x1 = 0.5996	1099.62	25.65
318.15 K, x1 = 0.6976	1116.66	37.27
318.15 K, x1 = 0.7969	1130.88	53.38
318.15 K, x1 = 0.9008	1143.26	79.6
318.15 K, x1 = 1	1153.33	118.3
323.15 K, x1 = 0.0998	886.07	1.601
323.15 K, x1 = 0.2003	960.91	2.99
323.15 K, x1 = 0.3006	1011.05	5.215
323.15 K, x1 = 0.4016	1047.55	9.094
323.15 K, x1 = 0.498	1074.02	14.01
323.15 K, x1 = 0.5996	1096.11	21.2
323.15 K, x1 = 0.6976	1113.14	30.75
323.15 K, x1 = 0.7969	1127.39	43.06
323.15 K, x1 = 0.9008	1139.76	62.7
323.15 K, x1 = 1	1149.87	91.22
